Injected dose/organ and Dose/g data for two compounds are collected here from ChEMBL document CHEMBL1127517 (J Med Chem, 1994).

Structures are written as SMILES.

Data set [1] deals with Rattus norvegicus. The experiment in a line: Distribution of radio activity in tissues of unfasted male rats was measured at 60 min of time in brain after intravenous administration. The class given is ADME, organism-based. The following applies: in vivo, 1 h.
Data set [2] has as its system Rattus norvegicus. The experiment in a line: Distribution of radio activity in tissues of unfasted male rats was measured at 60 min of time in lung after intravenous administration. The class given is ADME, organism-based. The following applies: in vivo, 1 h.
Data set [3] has as its system Rattus norvegicus. The experiment in a line: Distribution of radio activity in tissues of unfasted male rats was measured as regional uptake at 30 min of time in ST/CB after intravenous administration. The class given is ADME, organism-based. As to conditions: in vivo, 0.5 h.
Data set [4] concerns Rattus norvegicus. The experiment in a line: Distribution of radio activity in tissues of unfasted male rats was measured as regional uptake at 30 min of time in cerebellum after intravenous administration. The class given is ADME, organism-based. As to conditions: in vivo, 0.5 h.
Data set [5] concerns Rattus norvegicus. The experiment in a line: Distribution of radio activity in tissues of unfasted male rats was measured as regional uptake at 30 min of time in striatum after intravenous administration. The following applies: in vivo, 0.5 h. The format is ADME, organism-based.
Data set [6] relates to Rattus norvegicus. The experiment in a line: Distribution of radio activity in tissues of unfasted male rats was measured alungblood after intravenous administration. The format is ADME, organism-based, Lung. As to conditions: in vivo.
Data set [7] relates to Rattus norvegicus. The experiment in a line: Distribution of radio activity in tissues of unfasted male rats was measured at 30 min of time in kidney after intravenous administration. The class given is ADME, organism-based. The following applies: in vivo, 0.5 h.
In data set [8] the test system is Rattus norvegicus. The experiment in a line: Distribution of radio activity in tissues of unfasted male rats was measured at 30 min of time in thyroid after intravenous administration. The class given is ADME, organism-based, Thyroid gland. The following applies: in vivo, 0.5 h.
The subject of data set [9] is Rattus norvegicus. The experiment in a line: Distribution of radio activity in tissues of unfasted male rats was measured as regional uptake at 120 min of time in ST/CB after intravenous administration. The format is ADME, organism-based. The following applies: in vivo, 2 h.
Data set [10] has as its system Rattus norvegicus. The experiment in a line: Distribution of radio activity in tissues of unfasted male rats was measured as regional uptake at 60 min of time in hippocampus after intravenous administration. The format is ADME, organism-based. The following applies: in vivo, 1 h.
Data set [11] has as its system Rattus norvegicus. The experiment in a line: Distribution of radio activity in tissues of unfasted male rats was measured at 120 min of time in blood after intravenous administration. The class given is ADME, organism-based. As to conditions: in vivo, 2 h.
The subject of data set [12] is Rattus norvegicus. The experiment in a line: Distribution of radio activity in tissues of unfasted male rats was measured at 120 min of time in lung after intravenous administration. The format is ADME, organism-based. As to conditions: in vivo, 2 h.
The subject of data set [13] is Rattus norvegicus. The experiment in a line: Distribution of radio activity in tissues of unfasted male rats was measured at 2 min of time in kidney after intravenous administration. The class given is ADME, organism-based. As to conditions: in vivo.
For data set [14], the system named is Rattus norvegicus. The experiment in a line: Distribution of radio activity in tissues of unfasted male rats was measured as at 2 min of time in skin after intravenous administration. The format is ADME, organism-based. The following applies: in vivo.
For data set [15], the system named is Rattus norvegicus. The experiment in a line: Distribution of radio activity in tissues of unfasted male rats was measured at 2 min of time in spleen after intravenous administration. The format is ADME, organism-based. As to conditions: in vivo.
Data set [16] relates to Rattus norvegicus. The experiment in a line: Distribution of radio activity in tissues of unfasted male rats was measured at 2 min of time in skin after intravenous administration. The class given is ADME, organism-based. As to conditions: in vivo.
Data set [17] deals with Rattus norvegicus. The experiment in a line: Distribution of radio activity in tissues of unfasted male rats was measured as at 2 min of time in lung after intravenous administration. The format is ADME, organism-based. As to conditions: in vivo.
The test system of data set [18] is Rattus norvegicus. The experiment in a line: Distribution of radio activity in tissues of unfasted male rats was measured at 120 min of time in lung after intravenous administration. The class given is ADME, organism-based. As to conditions: in vivo, 2 h.

Regarding `COC(=O)C1C(c2ccc(Cl)cc2)CC2CCC1N2C/C=C\I` (stereo not given), the Injected dose/organ was 0.07% with Rattus norvegicus [1]; 0.5% in the data set with Rattus norvegicus [2]; 1.23% in the data set with Rattus norvegicus [6]; 0.78% with Rattus norvegicus [7]; 1.02% in the data set on Rattus norvegicus [8]; 5.16% in the data set with Rattus norvegicus [11]. In addition, the Injected dose/organ with Rattus norvegicus [12] was 0.4%; in the data set on Rattus norvegicus [13] it was 2.65%; with Rattus norvegicus [14] it was 7.27%; with Rattus norvegicus [15] it was 0.4%. Also, the Dose/g in the data set with Rattus norvegicus [3] was 3%; in the data set with Rattus norvegicus [4] it was 0.19%; in the data set on Rattus norvegicus [5], 0.33%; in the data set with Rattus norvegicus [9], 1.9%; in the data set with Rattus norvegicus [10] it was 0.04%.

`COC(=O)C1C(c2ccc(Cl)cc2)CC2CCC1N2C/C=C/I` (stereo not given): the Injected dose/organ in the data set with Rattus norvegicus [1] stood at 0.28%; with Rattus norvegicus [16], 5.14%; with Rattus norvegicus [2], 0.4%; in the data set with Rattus norvegicus [17], 1.19%; in the data set with Rattus norvegicus [7] it was 0.86%; in the data set with Rattus norvegicus [8], 0.76%. Further, the Injected dose/organ is on record as 4.77% in the data set on Rattus norvegicus [11], 3.11% in the data set with Rattus norvegicus [13], 0.31% in the data set on Rattus norvegicus [18] and 0.41% with Rattus norvegicus [15]. In addition, the Dose/g with Rattus norvegicus [3] is recorded as 6.91%; in the data set on Rattus norvegicus [4], 0.23%; in the data set on Rattus norvegicus [5] it was 1.67%; with Rattus norvegicus [9], 16.5%; with Rattus norvegicus [10], 0.095%.
